From article PMC11053151, “Anti-inflammatory and anti-diabetic properties of indanone derivative isolated from Fernandoa adenophylla in vitro and in silico studies” (Scientific Reports, 2024)

Assays:
[1] = biological target: T1, α-amylase (porcine pancreatic amylase) (Sus scrofa, UniProt P00690); test: starch hydrolysis / dinitrosalicylate colorimetric alpha-amylase inhibition assay; percent inhibition at […] µg; type: biochemical
T1 construct: gene AMY2
T1 sequence (P00690 16-511): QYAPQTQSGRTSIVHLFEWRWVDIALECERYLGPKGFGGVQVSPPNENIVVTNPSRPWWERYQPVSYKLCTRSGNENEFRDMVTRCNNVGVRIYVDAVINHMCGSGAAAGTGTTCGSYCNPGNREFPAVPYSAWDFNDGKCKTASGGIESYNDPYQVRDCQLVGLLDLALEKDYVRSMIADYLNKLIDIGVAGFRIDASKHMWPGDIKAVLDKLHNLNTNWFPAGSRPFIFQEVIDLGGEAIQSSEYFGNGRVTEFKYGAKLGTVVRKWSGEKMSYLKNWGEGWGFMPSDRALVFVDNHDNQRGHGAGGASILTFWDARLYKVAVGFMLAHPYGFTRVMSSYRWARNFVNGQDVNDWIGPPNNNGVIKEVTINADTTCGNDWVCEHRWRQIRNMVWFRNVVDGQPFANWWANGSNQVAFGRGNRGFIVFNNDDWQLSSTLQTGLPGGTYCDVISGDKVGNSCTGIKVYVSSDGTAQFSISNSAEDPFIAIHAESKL

[2] = biological target: T1, α-amylase (porcine pancreatic amylase); test: starch hydrolysis / dinitrosalicylate colorimetric alpha-amylase inhibition assay; type: biochemical

SMILES	% [1] [%]	IC50 [2] [µM]
C[C@H]1O[C@H](O[C@H]2[C@H](O)[C@@H](O)[C@@H](O[C@H]3[C@H](O)[C@@H](O)C(O)O[C@@H]3CO)O[C@@H]2CO)[C@H](O)[C@@H](O)[C@@H]1N[C@H]1C=C(CO)[C@@H](O)[C@H](O)[C@H]1O (some centres unmarked) [acarbose]	87.08 ± 1.328	–
COC(=O)[C@@]1(O)c2ccccc2C(=O)[C@]1(O)CC=C(C)C [indanone derivative, methyl (1R trans, 2S trans)-1,2-dihydroxy-2-(3-methylbut-2-en-1-yl)-3-oxo-2,3-dihydro-1H-indene-1-carboxylate]	–	46.4
